Holding throughout (type): nucleic-acid assay
The subject of assay [1] is Nucleic Acid. Nature of the assay: Induction of supercoiled Escherichia coli pUC19 cleavage assessed as formation of nicked DNA at 14 mg/L in phosphate buffered saline at pH 7.4 after 24 hrs by agarose gel electrophoresis relative to control.
Assay [2] has as its system Nucleic Acid. Nature of the assay: Induction of supercoiled Escherichia coli pUC19 cleavage assessed as formation of nicked DNA at 7 mg/L in phosphate buffered saline at pH 7.4 after 24 hrs by agarose gel electrophoresis relative to control.
A further assay concerns Calf thymus DNA. The assay is described as follows: Binding affinity to calf thymus DNA assessed as change in melting temperature at 18 mg/L by spectrophotometry. The note with it: Bos taurus.
The subject of assay [3] is Nucleic Acid. Nature of the assay: Induction of supercoiled Escherichia coli pUC19 cleavage assessed as formation of nicked DNA at 56 mg/L in phosphate buffered saline at pH 7.4 upto 24 hrs by agarose gel electrophoresis relative to control.
Assay [4] deals with Nucleic Acid. The assay is described as follows: Induction of supercoiled Escherichia coli pUC19 cleavage assessed as formation of nicked DNA at 28 mg/L in phosphate buffered saline at pH 7.4 after 24 hrs by agarose gel electrophoresis relative to control.
Assay [5] concerns Nucleic Acid. Nature of the assay: Induction of supercoiled Escherichia coli pUC19 cleavage assessed as formation of nicked DNA at 56 mg/L in phosphate buffered saline at pH 7.4 after 8 hrs by agarose gel electrophoresis relative to control.
Assay [6] relates to Nucleic Acid. Nature of the assay: Induction of supercoiled Escherichia coli pUC19 cleavage assessed as formation of nicked DNA at 56 mg/L in phosphate buffered saline at pH 7.4 after 24 hrs by agarose gel electrophoresis relative to control.
Assay [7] relates to Nucleic Acid. Nature of the assay: Induction of supercoiled Escherichia coli pUC19 cleavage assessed as formation of nicked DNA at 56 mg/L in phosphate buffered saline at pH 7.4 after 24 hrs by agarose gel electrophoresis in presence of tert-butyl alcohol.
Assay [8] concerns Nucleic Acid. The assay is described as follows: Induction of supercoiled Escherichia coli pUC19 cleavage assessed as formation of nicked DNA at 56 mg/L in phosphate buffered saline at pH 7.4 after 24 hrs by agarose gel electrophoresis in presence of potassium iodide.
Assay [9] concerns Nucleic Acid. The assay is described as follows: Induction of supercoiled Escherichia coli pUC19 cleavage assessed as formation of nicked DNA at 56 mg/L in phosphate buffered saline at pH 7.4 after 24 hrs by agarose gel electrophoresis in presence of NaN3.
Assay [10] deals with Nucleic Acid. The assay is described as follows: Induction of supercoiled Escherichia coli pUC19 cleavage assessed as formation of nicked DNA at 56 mg/L in phosphate buffered saline at pH 7.4 after 24 hrs by agarose gel electrophoresis in presence of DMSO.

SMILES strings stand for the structures. Activity calls are given as the source filed them. The calls are words filed in the database; no cut-off is given here.

The ΔTm is the shift of the melting midpoint relative to a reference. For `O=C(CS)N1CCNCCN(C(=O)CS)CCNCC1`, the Activity was 24% in the assay on Nucleic Acid [1]; 20% in the assay on Nucleic Acid [2]; 92% in the assay with Nucleic Acid [3]; 44% with Nucleic Acid [4]; 35% with Nucleic Acid [5]; 63% in the assay on Nucleic Acid [6]. Further, in the assay on Calf thymus DNA, the ΔTm turned out to be 3.4 °C.
Consider `O=C(CS)N1CCNCCN(C(=O)CSSCC(=O)N2CCNCCN(C(=O)CSSCC(=O)N3CCNCCN(C(=O)CSSCC(=O)N4CCNCCN(C(=O)CSSCC(=O)N5CCNCCN(C(=O)CS)CCNCC5)CCNCC4)CCNCC3)CCNCC2)CCNCC1`, for which the outcome with Nucleic Acid [7], with Nucleic Acid [8] and with Nucleic Acid [9] was inactive. The Activity was found to be 66% in the assay with Nucleic Acid [1], 31% in the assay with Nucleic Acid [2], 92% with Nucleic Acid [4] and 100% with Nucleic Acid [6]. For the same compound, the ΔTm in the assay with Calf thymus DNA turned out to be 4 °C. Further, the outcome in the assay with Nucleic Acid [5] and in the assay with Nucleic Acid [10] was Active.

(Values after ChEMBL document CHEMBL1158440, “Linear disulfide-containing low polymer as efficient DNA cleavage reagent” (Bioorg Med Chem Lett, 2009).)
